# Test results as given in PubChem BioAssay AID1963980 (Molecular Pharmacology Branch, DTP, NCI, 2024).
# System: 475296-252-R-J1-PDC spheroid viability
# Experiment: Anticancer human tumor 475296-252-R-J1-PDC patient-derived rectal carcinoma cell line growth inhibition [PI3K]
# Conditions: spheroids with HUVEC and MSC; for IC50: curve of first compound; for viability, T/C: stronger effect = lower value
# Outline: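 Targeted small molecules plus PI3K inhibitors, half-log dose series from Cmax (default top 10 microM), were applied to heterotypic spheroids of cancer cells with HUVEC and MSCs. Viability indicated growth inhibition.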
# [1] = second compound 0.0316 µM, first compound 0.0316 µM
# [2] = second compound 0.0316 µM, first compound 0.1 µM
# [3] = second compound 0.0316 µM, first compound 0.316 µM
# [4] = second compound 0.0316 µM, first compound 1 µM
# [5] = second compound 0.0316 µM, first compound 3.16 µM
# [6] = second compound 0.0316 µM, first compound 10 µM
# [7] = second compound 0.1 µM, first compound 0.0316 µM
# [8] = second compound 0.1 µM, first compound 0.1 µM
# [9] = second compound 0.1 µM, first compound 0.316 µM
# [10] = second compound 0.1 µM, first compound 1 µM
# [11] = second compound 0.1 µM, first compound 3.16 µM
# [12] = second compound 0.1 µM, first compound 10 µM
# [13] = second compound 0.316 µM, first compound 0.0316 µM
# [14] = second compound 0.316 µM, first compound 0.1 µM
# [15] = second compound 0.316 µM, first compound 0.316 µM
# [16] = second compound 0.316 µM, first compound 1 µM
# [17] = second compound 0.316 µM, first compound 3.16 µM
# [18] = second compound 0.316 µM, first compound 10 µM
# [19] = second compound 1 µM, first compound 0.0316 µM
# [20] = second compound 1 µM, first compound 0.1 µM
# [21] = second compound 1 µM, first compound 0.316 µM
# [22] = second compound 1 µM, first compound 1 µM
# [23] = second compound 1 µM, first compound 3.16 µM
# [24] = second compound 1 µM, first compound 10 µM
# [25] = second compound 3.16 µM, first compound 0.0316 µM
# [26] = second compound 3.16 µM, first compound 0.1 µM
# [27] = second compound 3.16 µM, first compound 0.316 µM
# [28] = second compound 3.16 µM, first compound 1 µM
# [29] = second compound 3.16 µM, first compound 3.16 µM
# [30] = second compound 3.16 µM, first compound 10 µM
# [31] = second compound 10 µM, first compound 0.0316 µM
# [32] = second compound 10 µM, first compound 0.1 µM
# [33] = second compound 10 µM, first compound 0.316 µM
# [34] = second compound 10 µM, first compound 1 µM
# [35] = second compound 10 µM, first compound 3.16 µM
# [36] = second compound 10 µM, first compound 10 µM
# 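Note: spheroids exposed to agents for seven days before readout.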
smiles,measurement,setting,value
C=CC(=O)N1CCN(c2nc(=O)n(-c3c(C)ccnc3C(C)C)c3nc(-c4c(O)cccc4F)c(F)cc23)C(C)C1 (stereo unspecified) + CC(Nc1ccc2c(c1)OCCn1cc(N3C(=O)OCC3C(F)F)nc1-2)C(N)=O,IC50,second compound 0.00316 µM,> 10 µM
same,IC50,second compound 0.01 µM,> 10 µM
same,IC50,second compound 0.0316 µM,> 10 µM
same,IC50,second compound 0.1 µM,> 10 µM
same,IC50,second compound 0.316 µM,> 10 µM
same,IC50,second compound 1 µM,> 10 µM
same,"viability, T/C","second compound 0.00316 µM, first compound 0.0316 µM",83.8%
same,"viability, T/C","second compound 0.00316 µM, first compound 0.1 µM",89.9%
same,"viability, T/C","second compound 0.00316 µM, first compound 0.316 µM",89.4%
same,"viability, T/C","second compound 0.00316 µM, first compound 1 µM",92.5%
same,"viability, T/C","second compound 0.00316 µM, first compound 3.16 µM",102%
same,"viability, T/C","second compound 0.00316 µM, first compound 10 µM",110%
same,"viability, T/C","second compound 0.01 µM, first compound 0.0316 µM",90.2%
same,"viability, T/C","second compound 0.01 µM, first compound 0.1 µM",84.9%
same,"viability, T/C","second compound 0.01 µM, first compound 0.316 µM",101%
same,"viability, T/C","second compound 0.01 µM, first compound 1 µM",102%
same,"viability, T/C","second compound 0.01 µM, first compound 3.16 µM",102%
same,"viability, T/C","second compound 0.01 µM, first compound 10 µM",97.8%
same,"viability, T/C",[1],88.3%
same,"viability, T/C",[2],97.2%
same,"viability, T/C",[3],91.2%
same,"viability, T/C",[4],90.2%
same,"viability, T/C",[5],99%
same,"viability, T/C",[6],96.3%
same,"viability, T/C",[7],83.7%
same,"viability, T/C",[8],92.2%
same,"viability, T/C",[9],96.5%
same,"viability, T/C",[10],103%
same,"viability, T/C",[11],94%
same,"viability, T/C",[12],98.6%
same,"viability, T/C",[13],77.5%
same,"viability, T/C",[14],90.8%
same,"viability, T/C",[15],88%
same,"viability, T/C",[16],86.9%
same,"viability, T/C",[17],83.4%
same,"viability, T/C",[18],86.2%
same,"viability, T/C",[19],82.7%
same,"viability, T/C",[20],79%
same,"viability, T/C",[21],87.5%
same,"viability, T/C",[22],83.5%
same,"viability, T/C",[23],86.6%
same,"viability, T/C",[24],81.3%
CC(Cn1ccc(-c2ccc(C#N)c(Cl)c2)n1)NC(=O)c1cc(C(C)O)[nH]n1 (stereo unspecified) + CC(Nc1ncnc2nc[nH]c12)c1cc2cccc(Cl)c2c(=O)n1-c1ccccc1,IC50,second compound 0.0316 µM,> 10 µM
same,IC50,second compound 0.1 µM,> 10 µM
same,IC50,second compound 0.316 µM,> 10 µM
same,IC50,second compound 1 µM,> 10 µM
same,IC50,second compound 3.16 µM,> 10 µM
same,IC50,second compound 10 µM,> 10 µM
same,"viability, T/C",[1],97.8%
same,"viability, T/C",[2],94.9%
same,"viability, T/C",[3],96.6%
same,"viability, T/C",[4],92.1%
same,"viability, T/C",[5],102%
same,"viability, T/C",[6],104%
same,"viability, T/C",[7],99.1%
same,"viability, T/C",[8],98.5%
same,"viability, T/C",[9],91.7%
same,"viability, T/C",[10],89%
same,"viability, T/C",[11],101%
same,"viability, T/C",[12],84.1%
same,"viability, T/C",[13],97%
same,"viability, T/C",[14],97.8%
same,"viability, T/C",[15],94.1%
same,"viability, T/C",[16],99.5%
same,"viability, T/C",[17],104%
same,"viability, T/C",[18],89.7%
same,"viability, T/C",[19],94.4%
same,"viability, T/C",[20],94.4%
same,"viability, T/C",[21],89.5%
same,"viability, T/C",[22],98.7%
same,"viability, T/C",[23],113%
same,"viability, T/C",[24],90.2%
same,"viability, T/C",[25],95.1%
same,"viability, T/C",[26],95.8%
same,"viability, T/C",[27],83.4%
same,"viability, T/C",[28],92.2%
same,"viability, T/C",[29],94.5%
same,"viability, T/C",[30],96.2%
same,"viability, T/C",[31],95%
same,"viability, T/C",[32],99.2%
same,"viability, T/C",[33],104%
same,"viability, T/C",[34],92.3%
same,"viability, T/C",[35],95.1%
same,"viability, T/C",[36],91.8%
C=CC(=O)N1CCN(c2nc(=O)n(-c3c(C)ccnc3C(C)C)c3nc(-c4c(O)cccc4F)c(F)cc23)C(C)C1 (stereo unspecified) + CC(Nc1ncnc2nc[nH]c12)c1cc2cccc(Cl)c2c(=O)n1-c1ccccc1,IC50,second compound 0.0316 µM,> 10 µM
same,IC50,second compound 0.1 µM,> 10 µM
same,IC50,second compound 0.316 µM,> 10 µM
same,IC50,second compound 1 µM,> 10 µM
same,IC50,second compound 3.16 µM,> 10 µM
same,IC50,second compound 10 µM,> 10 µM
same,"viability, T/C",[1],110%
same,"viability, T/C",[2],98.7%
same,"viability, T/C",[3],103%
same,"viability, T/C",[4],89%
same,"viability, T/C",[5],102%
same,"viability, T/C",[6],103%
same,"viability, T/C",[7],95.7%
same,"viability, T/C",[8],92%
same,"viability, T/C",[9],105%
same,"viability, T/C",[10],87.9%
same,"viability, T/C",[11],109%
same,"viability, T/C",[12],101%
same,"viability, T/C",[13],93.9%
same,"viability, T/C",[14],90.2%
same,"viability, T/C",[15],87.4%
same,"viability, T/C",[16],96%
same,"viability, T/C",[17],106%
same,"viability, T/C",[18],116%
same,"viability, T/C",[19],95.3%
same,"viability, T/C",[20],97.2%
same,"viability, T/C",[21],91.8%
same,"viability, T/C",[22],92.1%
same,"viability, T/C",[23],106%
same,"viability, T/C",[24],93.5%
same,"viability, T/C",[25],96.2%
same,"viability, T/C",[26],92.9%
same,"viability, T/C",[27],99.4%
same,"viability, T/C",[28],107%
same,"viability, T/C",[29],103%
same,"viability, T/C",[30],90.2%
same,"viability, T/C",[31],83.8%
same,"viability, T/C",[32],91.9%
same,"viability, T/C",[33],86.9%
same,"viability, T/C",[34],80.7%
same,"viability, T/C",[35],95.8%
same,"viability, T/C",[36],95.6%
